The target of one assay is T1, TYK2 JH2 (Homo sapiens, UniProt P29597).
T1 construct: purchased DiscoverX (KINOMEscan KdELECT service); host or cells: E. coli BL21-derived (T7 phage display) or HEK-293
T1 sequence (P29597 589-875 limits assumed): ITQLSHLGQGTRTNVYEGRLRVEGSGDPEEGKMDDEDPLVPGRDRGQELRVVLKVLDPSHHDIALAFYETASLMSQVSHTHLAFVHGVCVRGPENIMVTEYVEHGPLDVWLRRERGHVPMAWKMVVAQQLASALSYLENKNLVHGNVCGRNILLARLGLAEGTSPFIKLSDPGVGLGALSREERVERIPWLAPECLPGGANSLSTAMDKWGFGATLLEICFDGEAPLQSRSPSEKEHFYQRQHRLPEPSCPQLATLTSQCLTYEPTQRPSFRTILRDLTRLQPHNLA
Put plainly: TYK2 JH2 binding assay (KINOMEscan KdELECT competitive binding). Particulars: TYK2 JH2 domain, DiscoverX KINOMEscan KdELECT (Assay A); read-out: Biochemical TYK2_DiscoverX_JH2_BND_Kd. The protocol:
Assay A: TYK2 JH2 Binding Assay
Competitive binding studies using TKY2 JH2-domain fragments were conducted by DiscoverX using the KINOMEscan (KdELECT) platform. Kinase-tagged T7 phage strains were prepared in an E. coli host derived from the BL21 strain. E. coli were grown to log-phase and infected with […] and incubated with shaking at 32° C. until lysis. The lysates were centrifuged and filtered to remove cell debris. The remaining kinases were produced in HEK-293 cells and subsequently tagged with DNA for qPCR detection. Streptavidin-coated magnetic beads were treated with biotinylated small molecule ligands for 30 minutes at room temperature to generate affinity resins for kinase assays. The liganded beads were blocked with excess biotin and washed with blocking buffer (SeaBlock (Pierce), 1% BSA, 0.05% Tween 20, 1 mM DTT) to remove unbound ligand and to reduce non-specific binding. Binding reactions were assembled by combining kinases, liganded affinity beads, and test compounds in 1× binding buffer (20% SeaBlock, 0.17×PBS, 0.05% Tween 20, 6 mM DTT). Test compounds were prepared as 111× stocks in 100% DMSO. Kds were determined using an 11-point 3-fold compound dilution series with three DMSO control points. All compounds for Kd measurements are distributed by acoustic transfer (non-contact dispensing) in 100% DMSO. The compounds were then diluted directly into the assays such that the final concentration of DMSO was 0.9%. All reactions performed in polypropylene 384-well plate. Each was a final volume of 0.02 ml. The assay plates were incubated at room temperature with shaking for 1 hour and the affinity beads were washed with wash buffer (1×PBS, 0.05% Tween 20). The beads were then re-suspended in elution buffer (1×PBS, 0.05% Tween 20, 0.5 μM non-biotinylated affinity ligand) and incubated at room temperature with shaking for 30 minutes. The kinase concentration in the eluates was measured by qPCR.
As for `CCOC(=O)[C@H]1C[C@@H]1C(=O)Nc1cc2c(-c3nc4cc(OC)ccc4o3)cnc(NC)c2cn1` (racemic) [Example 392, ethyl 2-((5-(5-methoxybenzo[d]oxazol-2-y1)-8-(methylamino)-2,7-naphthyridin-3-yl)carbamoyl)cyclopropane-1-carboxylate], the Kd is at most 0.1 µM.
Consider `CNc1ncc(-c2nc3cc(OCc4ccccc4)ccc3o2)c2cc(Nc3ccc(OCc4ccccc4)cn3)ncc12` [Example 430, 4-(5-(benzyloxy)benzo[d]oxazol-2-yl)-N^6-(5-(benzyloxy)pyridin-2-yl)-N^1-methyl-2,7-naphthyridine-1,6-diamine], for which the Kd was in the range of 0.1 to 1 µM.

Still in this assay, the particulars now being: TYK2 JH2 domain, KINOMEscan KdELECT (Assay A); read-out: Biochemical TYK2_DiscoverX_JH2_BND_Kd.
In the case of `CNc1ncc(-c2noc(C)n2)c2cc(NC(=O)C3CC3)ncc12` [Example 837, N-(5-(5-methyl-1,2,4-oxadiazol-3-yl)-8-(methylamino)-2,7-naphthyridin-3-yl)cyclopropanecarboxamide], the Kd was at most 0.1 µM.
On the same count and under the same terms, with `CNc1ncc(CCc2cccc(S(C)(=O)=O)c2)c2cc(NC(=O)C3CC3)ncc12` [Example 838, N-(8-(methylamino)-5-(3-(methylsulfonyl)phenethyl)-2,7-naphthyridin-3-yl)cyclopropanecarboxamide] the figure was at most 0.1 µM; with `CNc1ncc(C(=O)N2CCCC2)c2cc(NC(=O)C3CC3)ncc12` [Example 840, N-(8-(methylamino)-5-(pyrrolidine-1-carbonyl)-2,7-naphthyridin-3-yl)cyclopropanecarboxamide], 0.1 to 1 µM.
As for `CNc1ncc(-c2nnc3n2CCC3)c2cc(NC(=O)C3CC3)ncc12` [Example 854, N-(5-(6,7-dihydro-5H-pyrrolo[2,1-c][1,2,4]triazol-3-yl)-8-(methylamino)-2,7-naphthyridin-3-yl)cyclopropanecarboxamide], the Kd is 0.1 to 1 µM.
The same measure, in the same setting: then `CNc1ncc(-c2cccn3nc(Br)nc23)c2cc(NC(=O)C3CC3)ncc12` [Example 856, N-(5-(2-bromo-[1,2,4]triazolo[1,5-a]pyridin-8-yl)-8-(methylamino)-2,7-naphthyridin-3-yl)cyclopropanecarboxamide], with 0.1 to 1 µM.

The same assay, now with this note: TYK2 JH2 domain, KINOMEscan KdELECT (Assay A); read-out: Biochemical TYK2_JH2_Kd.
As for `CNc1ncc(N2CCCS2(=O)=O)c2cc(NC(=O)C3CC3)ncc12` [Example 58, N-(5-(1,1-dioxidoisothiazolidin-2-yl)-8-(methylamino)-2,7-naphthyridin-3-yl)cyclopropanecarboxamide], the Kd was 0.1 to 1 µM.
Same read-out and setting: then `CNc1ncc(N2Cc3cnccc3C2=O)c2cc(NC(=O)C3CC3)ncc12` [Example 59, N-(8-(methylamino)-5-(1-oxo-1,3-dihydro-2H-pyrrolo[3,4-c]pyridin-2-yl)-2,7-naphthyridin-3-yl)cyclopropanecarboxamide], with 1 to 10 µM.
On the same count and under the same terms, with `CNc1ncc(-n2ccc(=O)cc2)c2cc(NC(=O)C3CC3)ncc12` [Example 60, N-(8-(methylamino)-5-(4-oxopyridin-1(4H)-yl)-2,7-naphthyridin-3-yl)cyclopropanecarboxamide] the figure was 0.1 to 1 µM; with `CNc1ncc(-n2ccccc2=O)c2cc(NC(=O)C3CC3)ncc12` [Example 61, N-(8-(methylamino)-5-(2-oxopyridin-1(2H)-yl)-2,7-naphthyridin-3-yl)cyclopropanecarboxamide], 1 to 10 µM; with `CNc1ncc(Oc2ccccn2)c2cc(NC(=O)C3CC3)ncc12` [Example 62, N-(8-(methylamino)-5-(pyridin-2-yloxy)-2,7-naphthyridin-3-yl)cyclopropanecarboxamide], at most 0.1 µM.
For the compound `CNc1ncc(-c2ccccc2)c2cc(NC3COC3)ncc12` [Example 97, N^1-methyl-N^6-(oxetan-3-yl)-4-phenyl-2,7-naphthyridine-1,6-diamine], the Kd was in the range of 0.1 to 1 µM.
Take `CNc1ncc(-c2ccccc2)c2cc(NCc3ccccc3)ncc12` [Example 99, N^6-benzyl-N^1-methyl-4-phenyl-2,7-naphthyridine-1,6-diamine]: the Kd lay within 1 to 10 µM.
Still for that read-out and setting: then `CNc1ncc(-c2ccccc2)c2cc(NCc3ccccn3)ncc12` [Example 100, N^1-methyl-4-phenyl-N^6-(pyridin-2-ylmethyl)-2,7-naphthyridine-1,6-diamine], with 1 to 10 µM; and `CNc1ncc(-c2ccccc2)c2cc(Nc3ccccc3)ncc12` [Example 102], with 0.1 to 1 µM.
Still for that read-out and setting: with `CNc1ncc(-c2cn(C)c3ncccc23)c2cc(NC(=O)C3CC3)ncc12` [Example 107, N-(5-(1-methyl-1H-pyrrolo[2,3-b]pyridin-3-yl)-8-(methylamino)-2,7-naphthyridin-3-yl)cyclopropanecarboxamide] the figure was at most 0.1 µM.
On the same count and under the same terms, with `CNc1ncc(C(=O)N2CCC(Oc3ccccc3)CC2)c2cc(NC(=O)C3CC3)ncc12` [Example 121, N-(8-(methylamino)-5-(4-phenoxypiperidine-1-carbonyl)-2,7-naphthyridin-3-yl)cyclopropanecarboxamide] the figure was 1 to 10 µM; with `CNc1ncc(C(=O)N2CCCCC2)c2cc(NC(=O)C3CC3)ncc12` [Example 122, N-(8-(methylamino)-5-(piperidine-1-carbonyl)-2,7-naphthyridin-3-yl)cyclopropanecarboxamide], 0.1 to 1 µM; with `CNc1ncc(C(N)=O)c2cc(NC(=O)C3CC3)ncc12` [Example 123, 6-(cyclopropanecarboxamido)-1-(methylamino)-2,7-naphthyridine-4-carboxamide], at most 0.1 µM.
For `CNc1ncc(-c2cc(-c3ccccc3)ns2)c2cc(NC(=O)C3CC3)ncc12` [Example 146, N-(8-(methylamino)-5-(3-phenylisothiazol-5-yl)-2,7-naphthyridin-3-yl)cyclopropanecarboxamide], the Kd was at most 0.1 µM.
On the same count and under the same terms, with `CSc1ncc(-c2ccccc2)c2cc(NC(=O)C3CC3)ncc12` [Example 159, N-(8-(methylthio)-5-phenyl-2,7-naphthyridin-3-yl)cyclopropanecarboxamide] the figure was 0.1 to 1 µM; with `CNc1ncc(-c2nc3cc(OC)ccc3o2)c2cc(NC(=O)C3CC3)ncc12` [Example 182, N-(5-(5-methoxybenzo[d]oxazol-2-yl)-8-(methylamino)-2,7-naphthyridin-3-yl)cyclopropanecarboxamide], at most 0.1 µM.
The same measure, in the same setting: then `CNc1ncc(-c2nc3cccc(F)c3o2)c2cc(NC(=O)C3CC3)ncc12` [Example 185, N-(5-(7-fluorobenzo[d]oxazol-2-yl)-8-(methylamino)-2,7-naphthyridin-3-yl)cyclopropanecarboxamide], with at most 0.1 µM.
Still for that read-out and setting: with `CNc1ncc(-c2nc3cc(N4CC(F)(F)C4)ccn3n2)c2cc(NC(=O)C3CC3)ncc12` [Example 189, N-(5-(7-(3,3-difluoroazetidin-1-yl)-[1,2,4]triazolo[1,5-a]pyridin-2-yl)-8-(methylamino)-2,7-naphthyridin-3-yl)cyclopropanecarboxamide] the figure was at most 0.1 µM.
For the compound `CNc1ncc(-c2nc3cc(N4CCCC(N5CC(F)(F)C5)C4)ccn3n2)c2cc(NC(=O)C3CC3)ncc12` (stereo not drawn) [Example 190, N-(5-(7-(3-(3,3-difluoroazetidin-1-yl)piperidin-1-yl)-[1,2,4]triazolo[1,5-a]pyridin-2-yl)-8-(methylamino)-2,7-naphthyridin-3-yl)cyclopropanecarboxamide], the Kd is at most 0.1 µM.
Same read-out and setting: with `CNc1ncc(-c2nc3ccc(F)cn3n2)c2cc(NC(=O)C3CC3)ncc12` [Example 191, N-(5-(6-fluoro-[1,2,4]triazolo[1,5-a]pyridin-2-yl)-8-(methylamino)-2,7-naphthyridin-3-yl)cyclopropanecarboxamide] the figure was at most 0.1 µM; with `CNc1ncc(-c2nc3cccc(F)n3n2)c2cc(NC(=O)C3CC3)ncc12` [Example 192, N-(5-(5-fluoro-[1,2,4]triazolo[1,5-a]pyridin-2-yl)-8-(methylamino)-2,7-naphthyridin-3-yl)cyclopropanecarboxamide], at most 0.1 µM.
For `CNc1ncc(-c2nc3c(F)cccn3n2)c2cc(NC(=O)C3CC3)ncc12` [Example 193, N-(5-(8-fluoro-[1,2,4]triazolo[1,5-a]pyridin-2-yl)-8-(methylamino)-2,7-naphthyridin-3-yl)cyclopropanecarboxamide], the Kd was at most 0.1 µM.
The same measure, in the same setting: then `CNc1ncc(-c2nc3cc(F)ccn3n2)c2cc(NC(=O)C3CC3)ncc12` [Example 194, N-(5-(7-fluoro-[1,2,4]triazolo[1,5-a]pyridin-2-yl)-8-(methylamino)-2,7-naphthyridin-3-yl)cyclopropanecarboxamide], with at most 0.1 µM.

Source of the values: patent publication US20240025906A1 (NEURON23, INC., priority 2022, published 2024).
